Experimental findings from patent US20100173835A1, “Peptides for Treatment of Obesity” (Novo Nordisk A/S, priority 2008, published 2010) are described below.

Series [1] concerns the target T1, MC1 receptor (Homo sapiens, UniProt Q01726).
T1 construct: expressed in transfected cells
As to the kind of experiment: Assay (IV) Melanocortin Receptor 1 (MC1) binding assay. Here is the method:
Assay (IV)—Melanocortin Receptor 1 (MC1) Binding Assay
The MC1 receptor binding assay is performed on BHK cell membranes stably expressing the MC1 receptor. The assay is performed in a total volume of 250 NI: 25 μl of ^125NDP-α-MSH (22 pM in final concentration), 25 μl of test compound/control and 200 μl of cell membrane (25 μg/ml). Test compounds are dissolved in DMSO. Radioactively labeled ligand, membranes and test compounds are diluted in buffer: 25 mM HEPES, pH 7.4, 0.1 mM CaCl2, 1 mM MgSO4, 1 mM EDTA, 0.1% HSA and 0.005% Tween™ 20. Alternatively, HSA may be substituted with ovalbumin. The samples are incubated at 30° C. for 90 min. in Costar round-bottom microtiter plates. Incubation is terminated by filtration on a Packard harvester filtermate. Rapid filtration through Packard Unifilter-96 GF/B filters pre-treated with polyethylenimine (PerkinElmer 6005277). The filters are washed with ice-cold 0.9% NaCl 8-10 times. The plates is air dried at app. 55° C. for 30 min, and 50 μl Microscint 0 (Packard, cat. No. 6013616) is added to each well. The plates are counted in a Topcounter (1 min/well).
(§1) The data are analysed by non-linear regression analysis of binding curves, using the Windows™ program GraphPad™ Prism (GraphPad Software, USA).

Series [2] deals with T2, human MC4 receptor (Homo sapiens, UniProt P32245).
T2 construct: expressed in transfected cells
In words: Assay (V) Melanocortin Receptor 4 (MC4) binding assay. Conditions: 125NDP-α-MSH binding, BHK cell membranes. Here is the method:
Assay (V)—Melanocortin Receptor 4 (MC4) Binding Assay
In vitro ^125NDP-α-MSH binding to recombinant BHK cells expressing human MC4 receptor (filtration assay).
The assay is performed in 5 ml minisorb vials (Sarstedt No. 55.526) or in 96-well filterplates (Millipore MADVN 6550), and using BHK cells expressing the human MC4 receptor using BHK cells stably expressing the human MC4 receptor. The membranes were prepared from frozen or fresh cells that were homogenized in 20 mM HEPES pH 7.1, 5 mM MgCl2 and 1 mg/ml bacitracin and centrifuged at 15000 rpm at 4° C., 10 min in a Sorvall RC 5B plus, SS-34 rotor. The supernatant was discarded, and the pellets were re-suspended in buffer, homogenized and centrifuged two more times. The final pellets were resuspended in the buffer mentioned above, and the protein concentration was measured and adjusted with buffer to 14 to 17 mg/ml and the membrane preparation were kept at −80° C. until assay. The assay was run directly on a dilution of this cell membrane suspension, without any further preparation. The BHK cell membranes are kept at −80° C. until assay, and the assay is run directly on a dilution of this cell membrane suspension, without further preparation. The suspension is diluted to give maximally 10% specific binding, i.e. to approx. 50-100 fold dilution. The assay is performed in a total volume of 200 μl: 50 μl of cell suspension, 50 μl of ^125NDP-α-MSH (≈79 pM in final concentration), 50 μl of test compound and 50 μl binding buffer (pH 7) mixed and incubated for 2 h at 25° C. [binding buffer: 25 mM HEPES, pH 7.0, 1 mM CaCl2, 1 mM MgSO4, 1 mM EGTA, 0.02% Bacitracin, 0.005% Tween™ 20 and 0.1% HSA or, alternatively, 0.1% ovalbumin (Sigma; catalogue No. A-5503)]. Test compounds are dissolved in DMSO and diluted in binding buffer. Radiolabelled ligand and membranes are diluted in binding buffer. The incubation is stopped by dilution with 2×100 μl ice-cold 0.9% NaCl. The radioactivity retained on the filters is counted using a Cobra II auto gamma counter.
as §1

A short description of series [3]: Solubility data of compounds in water over the pH range. The note with it: read-out: Conc (solubility in water). It counts as physicochemical.
Setting [4] is: 125NDP-α-MSH binding, BHK cell membranes, read-out: Assay (IV) MC1 Ki.

Converted amounts (≈) assume the structure as drawn. Read-outs that look alike come from different tables or passages of the source. *1 amine or outer side, *2 acyl side, *3 side chain or, on linkers, in order; H or OH if unused. Where a SMILES comes first, the peptide text is derived from it. Bridges are numbered along the chain shown (N, C = ends). [ ]: non-standard residue; d: D form. The star is where a group is joined. Palmitoyl(16-(5-tetrazolyl)) = O=C(CCCCCCCCCCCCCCCc1nnn[nH]1)*; Lys(CH2CO2H)2 = N[C@@H](CCCCN(CC(=O)O)CC(=O)O)C(=O)O; X1 = O=C(O)CN(CC(=O)O)C[C@H](N[*:1])C(=O)[*:2]; C20 diacid = O=C(O)CCCCCCCCCCCCCCCCCCC(=O)*; Hyp = O=C(O)[C@@H]1C[C@@H](O)CN1; NTA = O=C(O)CN(CC(=O)O)CC(=O)*; Nle = CCCC[C@H](N)C(=O)O; Dap = NC[C@H](N)C(=O)O; AEEA = NCCOCCOCC(=O)O; βAla = NCCC(=O)O

T1 sequence (Q01726 whole entry): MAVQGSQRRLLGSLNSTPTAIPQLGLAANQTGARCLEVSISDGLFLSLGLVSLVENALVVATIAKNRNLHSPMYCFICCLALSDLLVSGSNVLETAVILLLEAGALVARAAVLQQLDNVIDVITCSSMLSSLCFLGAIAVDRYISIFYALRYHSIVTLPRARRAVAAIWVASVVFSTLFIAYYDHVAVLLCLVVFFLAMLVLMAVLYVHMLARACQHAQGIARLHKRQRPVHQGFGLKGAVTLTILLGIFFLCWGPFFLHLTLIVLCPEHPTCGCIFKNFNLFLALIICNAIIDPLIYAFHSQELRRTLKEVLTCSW
T2 sequence (P32245 whole entry): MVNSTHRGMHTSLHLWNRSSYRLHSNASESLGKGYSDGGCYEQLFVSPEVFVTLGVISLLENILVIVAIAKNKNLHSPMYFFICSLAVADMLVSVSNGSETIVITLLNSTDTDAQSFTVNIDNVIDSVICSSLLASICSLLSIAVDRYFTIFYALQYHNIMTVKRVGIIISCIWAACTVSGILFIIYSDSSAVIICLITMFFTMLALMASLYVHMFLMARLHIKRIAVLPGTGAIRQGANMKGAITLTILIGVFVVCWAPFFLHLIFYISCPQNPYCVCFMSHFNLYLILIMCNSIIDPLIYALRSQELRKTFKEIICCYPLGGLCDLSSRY

For the compound `CCCC[C@H](NC(=O)[C@H](CCCCN(CC(=O)O)CC(=O)O)NC(=O)[C@H](Cc1c[nH]cn1)NC(=O)[C@H](CCC(N)=O)NC(=O)[C@H](CO)NC(=O)[C@H](CO)NC(=O)[C@H](CCC(N)=O)NC(=O)[C@@H](CO)NC(=O)CNC(=O)COCCOCCNC(=O)COCCOCCNC(=O)CCCCCCCCCCCCCCCc1nnn[nH]1)C(=O)N[C@H]1CCC(=O)NCCCC[C@@H](C(N)=O)NC(=O)[C@H](Cc2c[nH]c3ccccc23)NC(=O)[C@H](CCCNC(=N)N)NC(=O)[C@@H](Cc2ccccc2)NC(=O)[C@@H]2C[C@@H](O)CN2C1=O` [Example 3, (2-{2-[2-(2-{2-[16-(Tetrazol-5-yl)hexadecanoylamino]ethoxy}ethoxy)acetylamino]ethoxy}ethoxy)acetyl-Gly-D-Ser-Gln-Ser-Ser-Gln-His-Lys(biscarboxymethyl)-Nle-c[Glu-Hyp-D-Phe-Arg-Trp-Lys]-NH2] ({Palmitoyl(16-(5-tetrazolyl))-AEEA-AEEA}-G[dS]QSSQH[Lys(CH2CO2H)2][Nle]E[Hyp][dF]RWK-NH2; lactam 10-15), the figures for the inhibition constant (Ki) in series [1] and in series [2] (Assay (V) MC4 [Ki] (nM)) were above 10000 nM and 1.95 nM, respectively. Further, the solubility (in general, how much of the substance goes into solution per volume) at 3 days in series [3] (pH 2.95, pH 2.95) turned out to be 435 µM (≈ 1100 µg/mL); in series [3] (pH 3.88, pH 3.88), 570 µM (≈ 1440 µg/mL); in series [3] (pH 4.82, pH 4.82), 429 µM (≈ 1080 µg/mL); in series [3] (pH 4.84, pH 4.84), 324 µM (≈ 818 µg/mL); in series [3] (pH 5.18, pH 5.18), 75 µM (≈ 189 µg/mL); in series [3] (pH 6.1, pH 6.10), 39 µM (≈ 98.5 µg/mL). Besides, the solubility at 3 days stood at 87 µM (≈ 220 µg/mL) in series [3] (pH 6.95, pH 6.95); 190 µM (≈ 480 µg/mL) in series [3] (pH 7.15, pH 7.15); 256 µM (≈ 646 µg/mL) in series [3] (pH 7.24, pH 7.24); 316 µM (≈ 798 µg/mL) in series [3] (pH 7.29, pH 7.29).
For the compound `CCCC[C@H](NC(=O)[C@H](CCCCN(CC(=O)O)CC(=O)O)NC(=O)[C@H](Cc1c[nH]cn1)NC(=O)[C@H](CCC(N)=O)NC(=O)[C@H](CO)NC(=O)CNC(=O)COCCOCCNC(=O)CCCCCCCCCCCCCCCc1nnn[nH]1)C(=O)N[C@H]1CCC(=O)NCCCC[C@@H](C(N)=O)NC(=O)[C@H](Cc2c[nH]c3ccccc23)NC(=O)[C@H](CCCNC(=N)N)NC(=O)[C@@H](Cc2ccccc2)NC(=O)[C@@H]2C[C@@H](O)CN2C1=O` [Example 7, (2-{2-[16-(Tetrazol-5-yl)hexadecanoylamino]ethoxy}ethoxy)acetyl-Gly-Ser-Gln-His-Lys(biscarboxymethyl)-Nle-c[Glu-Hyp-D-Phe-Arg-Trp-Lys]-NH2] ({Palmitoyl(16-(5-tetrazolyl))-AEEA}-GSQH[Lys(CH2CO2H)2][Nle]E[Hyp][dF]RWK-NH2; lactam 7-12), the Ki (as a rule, a dissociation constant, usually derived from enzyme kinetics or from competition with a known ligand) stood at 8710 nM in series [1] and 1.6 nM in series [2] (Assay (V) MC4 [Ki] (nM)). The solubility at 3 days was found to be 536 µM (≈ 1110 µg/mL) in series [3] (pH 2.94, pH 2.94); 476 µM (≈ 989 µg/mL) in series [3] (pH 3.28, pH 3.28); 398 µM (≈ 827 µg/mL) in series [3] (pH 3.59, pH 3.59); 276 µM (≈ 573 µg/mL) in series [3] (pH 3.95, pH 3.95); 42 µM (≈ 87.3 µg/mL) in series [3] (pH 4.75, pH 4.75); 19 µM (≈ 39.5 µg/mL) in series [3] (pH 5.64, pH 5.64). Further, the solubility at 3 days is 18 µM (≈ 37.4 µg/mL) in series [3] (pH 6.48, pH 6.48); 35 µM (≈ 72.7 µg/mL) in series [3] (pH 6.98, pH 6.98); 262 µM (≈ 544 µg/mL) in series [3] (pH 7.48, pH 7.48); 391 µM (≈ 812 µg/mL) in series [3] (pH 7.78, pH 7.78).
For the compound `CCCC[C@H](NC(=O)[C@H](CNC(=O)CN(CC(=O)O)CC(=O)O)NC(=O)[C@H](Cc1ccc(O)cc1)NC(=O)[C@H](CCC(N)=O)NC(=O)[C@H](CO)NC(=O)CNC(=O)COCCOCCNC(=O)CCCCCCCCCCCCCCCc1nnn[nH]1)C(=O)N[C@H]1CCC(=O)NCCCC[C@@H](C(N)=O)NC(=O)[C@H](Cc2c[nH]c3ccccc23)NC(=O)[C@H](CCCNC(=N)N)NC(=O)[C@@H](Cc2ccccc2)NC(=O)[C@@H]2C[C@@H](O)CN2C1=O` [Example 19, (2-{2-[16-(Tetrazol-5-yl)hexadecanoylamino]ethoxy}ethoxy)acetyl-Gly-Ser-Gln-Tyr-Dap(BCMA)-Nle-c[Glu-Hyp-D-Phe-Arg-Trp-Lys]-NH2] ({Palmitoyl(16-(5-tetrazolyl))-AEEA}-GSQY[Dap](NTA)[Nle]E[Hyp][dF]RWK-NH2; lactam 7-12), the figures for the inhibition constant Ki in series [1] (setting [4]) and in series [2] (read-out: Assay (V) MC4 [Ki]) were above 10000 nM and 3.9 nM, respectively.
Turning to `CCCC[C@H](NC(=O)CCNC(=O)[C@H](CCCCN(CC(=O)O)CC(=O)O)NC(=O)[C@H](Cc1c[nH]cn1)NC(=O)[C@H](CCC(N)=O)NC(=O)[C@H](CO)NC(=O)[C@H](CO)NC(=O)[C@H](CCC(N)=O)NC(=O)[C@@H](CO)NC(=O)CNC(=O)COCCOCCNC(=O)COCCOCCNC(=O)CCCCCCCCCCCCCCCCCCC(=O)O)C(=O)N[C@H]1CCC(=O)NCCCC[C@@H](C(N)=O)NC(=O)[C@H](Cc2c[nH]c3ccccc23)NC(=O)[C@H](CCCNC(=N)N)NC(=O)[C@@H](Cc2ccccc2)NC(=O)[C@@H]2C[C@@H](O)CN2C1=O` [Example 22, {2-[2-(2-{2-[2-(19-Carboxynonadecanoylamino)ethoxy]ethoxy}acetylamino)ethoxy]ethoxy}acetyl-Gly-D-Ser-Gln-Ser-Ser-Gln-His-Lys(biscarboxymethyl)β-Ala-Nle-c[Glu-Hyp-D-Phe-Arg-Trp-Lys]-NH2] ({C20 diacid-AEEA-AEEA}-G[dS]QSSQH[Lys(CH2CO2H)2][βAla][Nle]E[Hyp][dF]RWK-NH2; lactam 11-16), the Ki in series [1] is above 10000 nM; in series [2] (Assay (V) MC4 [Ki] (nM)), 0.55 nM.
`CCCC[C@H](NC(=O)[C@H](CN(CC(=O)O)CC(=O)O)NC(=O)[C@H](Cc1ccc(O)cc1)NC(=O)[C@H](CCC(N)=O)NC(=O)[C@H](CO)NC(=O)CNC(=O)COCCOCCNC(=O)CCCCCCCCCCCCCCCc1nnn[nH]1)C(=O)N[C@H]1CCC(=O)NCCCC[C@@H](C(N)=O)NC(=O)[C@H](Cc2c[nH]c3ccccc23)NC(=O)[C@H](CCCNC(=N)N)NC(=O)[C@@H](Cc2ccccc2)NC(=O)[C@@H]2C[C@@H](O)CN2C1=O` [Example 23, (2-{2-[16-(Tetrazol-5-yl)hexadecanoylamino]ethoxy}ethoxy)acetyl-Gly-Ser-Gln-Tyr-Dap(biscarboxymethyl)-Nle-c[Glu-Hyp-D-Phe-Arg-Trp-Lys]-NH2] ({Palmitoyl(16-(5-tetrazolyl))-AEEA}-GSQY[X1][Nle]E[Hyp][dF]RWK-NH2; lactam 7-12): the inhibition constant Ki in series [1] (setting [4]) was above 10000 nM; in series [2] (read-out: Assay (V) MC4 [Ki]), 7.9 nM.
